Test results reported in patent publication US9422238B2, “ICMT inhibitors” (National University of Singapore, priority 2012, dated 2016).
Values after ≈ are worked out from the molar mass of the structure shown. Read-outs that look alike come from different tables or passages of the source.

How the values were obtained:
[1] = system: several malignant cell lines; conditions: irrespective of Ras status; cited from earlier work
[2] = system: Human hepatocellular carcinoma HepG2 cells; experiment: Cell viability (MTS, 72 h); format: cell-based; conditions: HepG2, Table 6, mean (SD), read-out: IC50 (μM) HepG2
Protocol: (§1) Cell viability was determined from the expression:
(§2) The plot was constrained to ≧0 and ≦100%.
Human hepatocellular carcinoma HepG2 and human pancreatic cancer MIA PACA II cells were obtained from ATCC (Rockville, Md.). They were grown in DMEM (high glucose, Invitrogen) supplemented with 10% FBS, 50 μg/mL penicillin and 50 μg/mL streptomycin, 37° C., 5% CO2 until they reached 80-90% confluency, after which they were subcultured. Passage numbers were kept within 7-14 passages for both cell types.

[3] = system: Human lung fibroblast IMR90 cells; experiment: Cell viability on non-malignant cells (MTS, 72 h); format: cell-based
Protocol: as §1, §2
Human lung fibroblast IMR90 cells were purchased from ATCC (Rockville, Md.) and grown in Eagle's Minimal Essential Media (EMEM, Sigma Aldrich, Singapore) at 37° C., 5% CO2. […] Seeding density was maintained at 4000 cells per well.

[4] = system: PC3 Prostrate cancer cells; experiment: Antiproliferative activity / cell viability (MTS, 72 h); format: cell-based, human; conditions: Homo sapiens
Protocol: The relative number of the live cells was determined using the CellTiter® 96 AQueous One Solution Cell Proliferation Assay (Promega). Determinations were made in duplicates or triplicates.

[5] = molecular target: T1, Isoprenylcysteine carboxyl methyltransferase (Icmt) (Homo sapiens, UniProt O60725); experiment: Icmt inhibition, scintillation proximity assay with BFC and [3H]SAM; format: biochemical; conditions: read-out: IC50 Icmt
T1 construct: made in house; host or cells: Sf9 (Spodoptera frugiperda) insect cells; membrane preparation provided by Prof PJ Casey (Duke University / Duke-NUS)
T1 sequence (O60725 whole entry, species assumed): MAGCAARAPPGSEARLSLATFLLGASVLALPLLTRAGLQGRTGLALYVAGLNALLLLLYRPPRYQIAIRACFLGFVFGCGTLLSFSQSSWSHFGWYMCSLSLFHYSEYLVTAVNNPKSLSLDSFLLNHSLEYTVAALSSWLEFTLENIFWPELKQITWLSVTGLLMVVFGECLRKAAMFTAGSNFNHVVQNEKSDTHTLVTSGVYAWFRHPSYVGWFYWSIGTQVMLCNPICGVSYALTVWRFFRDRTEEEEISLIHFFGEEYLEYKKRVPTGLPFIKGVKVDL
Protocol: Isoprenylcysteine carboxyl methyltransferase (Icmt) was provided by Prof PJ Casey of Duke University, NC. S-Adenosylmethionine (SAM), magnesium chloride Hexahydrate (MgCl2), tartrazine, 4-(2-hydroxyethyl)-1-piperazineethanesulfonic acid (HEPES), dimethyl sulfoxide (DMSO) and dithiotreitol (DTT) were purchased from Sigma (Mo, USA). [^3H] S-Adenosylmethionine, [^3H] Biotin and Streptavidin PVT SPA Beads were purchased from PerkinElmer (Waltham, Mass.). Assays were performed in black small volume 384 well microtitre plates from PerkinElmer.
Stocks of Icmt membrane protein (30 μg/μL) stored at −80° C. were thawed at 37° C. and placed on ice. The Icmt membrane protein was diluted in assay buffer (70 mM HEPES, 100 mM NaCl, 5 mM Mg Cl2 and 3 mM DTT, pH 7.5) to a 0.03 μg/μL working concentration and added to the wells of a microtitre plate (5 μl/well). To each wells 20 μl of the reaction buffer was added. The reaction was initiated with the addition of 5 μL of substrate solution containing BFC (6 μM), SAM (3 μM) and 30 μCi/mL [^3H] SAM (all of these reagents were stored at −20° C., SAM reagents thawed on ice, BFC thawed at RT). The plate was incubated at 37° C. for 30 minutes. The reaction was stopped with the addition of 15 μL of stop solution containing SAM (150 μM) and Streptavidin SPA beads (20 mg/mL). Following overnight incubation at ambient temperature radioactivity was counted on a Microbeta Trilux™ (Perkin Elmer, Turku, Finland).
Sf9 (Spodoptera frugiperda ovarian) membranes containing recombinant Icmt were provided by Prof PJ Casey (Duke University, NC and Duke-NUS Graduate Medical School). S-Adenosylmethionine (SAM), magnesium chloride hexahydrate, tartrazine, 4-(2-hydroxyethyl)-1-piperazineethanesulfonic acid (HEPES) and dithiotreitol (DTT) were purchased from Sigma (Mo, USA). [^3H] S-Adenosylmethionine, [^3H] biotin and streptavidin PVT SPA Beads were purchased from PerkinElmer (Waltham, Mass.). Biotinylated farnesylcysteine was synthesized as described in an earlier report. Assays were performed in black 384-well microtitre plates from PerkinElmer.
A vial of Icmt membrane protein (30 μg/μL) stored at −80° C. was thawed at 37° C. and placed on ice. The protein was diluted in assay buffer (70 mM HEPES, 100 mM NaCl, 5 mM MgCl2, 3 mM DTT, pH 7.5) to 0.03 μg/μL and aliquots were added to each well (5 μL/well), followed by 20 μL of the assay buffer. The reaction was initiated by adding 5 μL of a solution containing biotinylated BFC (6 μM), SAM (3 μM) and 30 μCi/mL [^3H] SAM. These reagents were stored at −20° C. and thawed on ice (SAM, [^3H] SAM) or at room temperature (BFC). The plate was incubated at 37° C. for 30 minutes after which the reaction was quenched by adding 15 μL of a solution comprising SAM (150 μM) and streptavidin SPA beads (20 mg/mL). After overnight incubation at ambient temperature, radioactivity was counted (Microbeta Trilux™, Perkin Elmer, Turku, Finland). The degree of inhibition was assessed from the radioactivity obtained in presence of test compound compared to that obtained from the control sample […]. Two independent determinations were made for each test compound.

[6] = system: MDA-MB-231 human breast cells; conditions: earlier study; read-out: IC50 MDA-MB-231, previous value; cited from earlier work
[7] = physchem; conditions: for solubility at 24 h: 25 °C; for solubility at 24 h / solubility at 3 h: pH 7.4, aqueous buffer, kinetic from dmso stock
Protocol: The turbid solution was delivered to the filter plate, agitated for a specific time period and then filtered. The concentration of dissolved compound in the filtrate was determined by uv spectroscopy and referred to pre-constructed calibration curves for solubility determination.
(§3) Determination of aqueous solubility was carried out on Multiscreen® Solubility filter plates (Millipore-MSSLBPC10) from Millipore Corporation (MA, USA). The protocol (PC2445EN00, Millipore Corporation) was followed. Briefly, various concentrations of the test compound were prepared in Universal buffer (pH 7.4)/acetonitrile/DMSO. The UV absorbances of these solutions were obtained at a pre-determined wavelength and used to construct a calibration curve for the test compound. Next, a stock solution of the test compound in DMSO was prepared at a known concentration, diluted with Universal buffer (pH 7.4), dispensed into wells in the Multiscreen Solubility filter plate, and agitated for a period of time. The suspension is then filtered, the filtrate collected and diluted with acetonitrile to give the same solvent composition used to prepare the calibration solutions. The absorbance of the diluted filtrate was then read at the predetermined wavelength and the concentration of the filtrate (taken here to be equivalent to the solubility of the test compound) was determined from the calibration curve.
as §3, with “24 hours at room temperature (25 deg C.). […]” for “a period of time.”, “was” for “is then”, “was” for “was then”, “(equivalent” for “(taken here to be equivalent”, “curve. […] LCMS determinations were made on an Agilent 1200 Series HPLC linked to a AB Sciex Instruments 3200 Q TRAP LC/MS/MS. Separations were carried out on a Phenomenex Luna column [3u, C18(2), 100A, 5×4.6 mm]. […] Quantification was based on the ratio of peak areas of the daughter ion and the mother ion (M+H), normalized against the same ratio obtained for the internal standard. The solubility determinations were carried out in triplicates or more from two different stock solutions.” for “curve.”

[8] = system: MDA-MB-231 human breast cells; experiment: Antiproliferative activity / cell viability (MTS, 72 h); conditions: Homo sapiens
[9] = Aggregation tendency by dynamic light scattering (DLS); format: physicochemical; conditions: 1% DMSO, potassium phosphate buffer 5 mM pH 7.4
Protocol: Stock solutions (10 mM) of test compounds prepared in DMSO, diluted to 1 mM with DMSO and then serially diluted with potassium phosphate buffer (5 mM, pH 7.4, prefiltered before use) to give final concentrations of 1 μM and 10 μM. Final concentration of DMSO was 1% v/v. Measurements were carried out on the Malvern Instrument Zetasizer Nano ZS system equipped with a 4 mW He—Ne laser at 633 nm and detector angle of 90°. Three or more determinations of derived count rates (kilocounts per second, kcps) were obtained from each concentration of test compound, using two separately prepared stock solutions. Data collection was carried out using the software supplied with the instrument. Results are represented as mean±standard deviation. The positive control was benzyl benzoate (250 μM) which gave a count rate of 1180 kcps (±35). The vehicle (phosphate buffer, 1% DMSO) gave a reading of 14.9±0.4.

[10] = Parallel Artificial Membrane Permeability Assay (PAMPA); conditions: 500 uM stock, similar conditions
Protocol: Briefly, determinations were carried out on MultiScreen-IP PAMPA assay (donor) plates (MAIPNTR10) and MultiScreen Receiver Plates (MATRNPS50) from Millipore Corporation (USA) with 1% lecithin (L-α-phosphatidylcholine from lyophilized powder of egg yolk, Sigma Aldrich, USA) in dodecane (ReagentPlus®, Sigma Aldrich, USA) as lipid barrier. 5 μL of 1% lecithin in dodecane was dispensed into the wells of the donor plates. […] The mobile phase was Milli-Q water (0.1% formic acid) and acetonitrile (0.1% formic acid), run on gradient.
Pe was obtained from Equation 1:
[formula] Where VA and VD are the volumes of acceptor (cm^3) and donor (cm^3) wells respectively, A is the area of the surface area of the membrane (0.24 cm^2), t is the permeation time (s); S is the fraction of sample remaining in the donor and acceptor wells after permeation time and is determined from Equation 2, CA and CD are the concentrations (μM) of test/reference compound in acceptor and donor wells respectively.
The Pe of each compound was obtained from at least 3 separate experiments using no less than 2 different stock solutions. For each independent determination, triplicates (3 wells) were run for each compound.

[11] = IMR-90, Table 6, mean (SD), read-out: IC50 (μM) IMR90
[12] = PC-3M, Table 3, 72 h, mean (SD), read-out: IC50 PC3
[13] = Table 6, from earlier table, read-out: IC50 (μM) PC3
[14] = Table 3, mean of two or more determinations (SD)
[15] = MDA-MB-231, 72 h, read-out: IC50MDA-MB-231 (μM)
[16] = MDA-MB-231, read-out: IC50 (μM) MDA MB 231

Row | Compound | IC50 [2] [µM] | IC50 [3, 11] [µM] | IC50 [4, 12] [µM] | IC50 [4, 13] [µM] | IC50 [5, 14] [µM] | solubility at 24 h [7] [µM] | solubility at 3 h [7] [µM] | IC50 [8, 15] [µM] | IC50 [8, 16] [µM] | Pe sequence of standard compounds [10] | further results
1 | COc1cccc(NCCC2(c3ccccc3)CC(C)(C)OC(C)(C)C2)c1 [3-methoxy-N-[2-(2,2,6,6-tetramethyl-4-phenyltetrahydropyran-4-yl)ethyl]aniline] | – | – | – | – | – | – | – | – | – | – | GI50 [1]: ≥ 0.3 µM
2 | CCCCCCCCn1cc(CN(CC)CC)c2cc(-c3cccc(C)c3)ccc21 [Compound 8-1] | 6.57 | 5.26 | 6.31 | 6.31 | 2.2 | < 1 | < 1 | 7.9 | 7.9 | – | IC50 ([5]; Table 3, mean of two or more determinations (SD), listed as 8.1): 2.18 µM; IC50 [6]: 3.6 µM
3 | CCCCCCCCn1cc(CN(CC)CC)c2cc(-c3ccc(S(C)(=O)=O)cc3)ccc21 [Compound 8-10, Diethyl-[5(4-methanesulfonyl-phenyl)-1-octyl-1H-indol-3ylmethyl]-amine] | 3.44 | 5.52 | 4.74 | 4.74 | 1.72 | – | – | 5.56 | 5.56 | – | –
4 | CCCCCCCCn1cc(CN(CC)CC)c2cc(-c3cncnc3)ccc21 [Compound 8-15, Diethyl-(1-octyl-5-pyrimidin-5-yl-1H-indol-3ylmethyl)-amine] | – | – | 8.32 | – | 1.58 | 272 (≈ 107 µg/mL) | 266 (≈ 105 µg/mL) | 9 | – | – | IC50 ([3]; IMR-90, further testing, 72 h, mean (SD), read-out: IC50 IMR90): 9.84 µM; IC50 ([5]; further testing, mean (SD)): 1.6 µM; Solubility (μM) ([7]; 24 h, pH 7.4): 271.56 (6.63) μM; IC50 ([8]; MDA-MB-231, 72 h, read-out: IC50 MDA-MB-231 (μM)): 13.2 µM; DLS count rate (kcps) ([9]; 1 μM): 20.4 kcps; DLS count rate (kcps) ([9]; 10 μM): 28.9 kcps
5 | Cn1c(=O)c2c(ncn2C)n(C)c1=O [caffeine, reference compound] | – | – | – | – | – | – | – | – | – | verapamil>quinidine>caffeine | –
6 | C=C[C@H]1C[N@@]2CC[C@H]1C[C@@H]2[C@@H](O)c1ccnc2ccc(OC)cc12 [quinidine, reference compound] | – | – | – | – | – | – | – | – | – | verapamil>quinidine>caffeine | –
